Assay results from patent publication US20020155172A1, “Methods and compounds for decreasing cell toxicity or death” (priority 2000, published 2002).
Peptide text beside a SMILES is read from it. * marks the point of attachment. Cbz = O=C(OCc1ccccc1)*; CH2F = FC*

Columns and labels:
Format in all cases: cell-based
[1] = tested on: Q79 transiently transfected HeLa cells; test: Cell protective effects by ATP depletion tests and luciferase activity analysis; settings: 5 μM or 25μM of the test compound
Procedure: (§1) A high-throughput method for identifying compounds that decrease cell toxicity or death has been designed. In this method, cells were seeded at 2×10^5 cells in 100 mm dishes. The next day the plated cells were transiently transfected with a plasmid encoding an expanded polyglutamine repeat, for example, Q79. Three hours later, transfection efficiency was assessed. Plates containing cells having 10-20% transfection efficiency at this 3 hour time point were trypsinized and re-plated at 600 or at 1500 cells per well in 384 well plates with clear bottoms. After 6 hours, the candidate compounds were added to the multi-well plates. The cells were cultured for 48 hours and ATP levels were determined using an ATPLite™ kit. Data was then expressed in either arbitrary units, or as relative ratio of ATP levels in Q79 transfected cells in compound-treated relative to vehicle-treated samples.
The structures and ChemBridge library product numbers for the compounds that tested positively in the ATP depletion assays and luciferase assays are shown in FIGS. 14A-14L. In addition, derivatives of some of the identified compounds, as shown in FIGS. 14A-14F, were identified and tested for their cell protective effects, as assayed by ATP depletion tests and luciferase activity analysis after administration of Q79 transiently transfected HeLa cells with 5 μM or 25μM of the test compound. […]

[2] = tested on: HeLa cells transfected with Q79-GFP; test: Cellular ATP levels (ATPLite) in Q79 expressing HeLa cells; settings: Q79-GFP, assayed 48 hours after transfection
Procedure: We also investigated whether Congo red prevented other cellular events during cell death, including ATP depletion, caspase activation, and protein synthesis inhibition. HeLa cells were transfected with the Q79-GFP construct. Forty-eight hours later, the viability of cells expressing expanded polyglutamine repeats was determined by measuring cellular ATP levels, suing an ATPLite™ kit, according to the directions provided by the manufacturer (Packard, Co.) (FIG. 5A).
To determine the effect of Congo red (100 μM) on polyglutamine-induced cell toxicity. HeLa cells were transiently transfected with Q79-GFP, and six hours later were administered various concentrations of Congo red. Cell viability was assayed 72 hours after transfection, by measuring the level of ATP in each sample. ATP levels in cells expressing Q79 were determined by using the ATPLite™ kit as recommended by the manufacturer (Packard, Inc.). Briefly, cells were transfected with Q79 and treated 6 hours after transfection. Forty-two hours later, the levels of ATP were determined. (FIG. 5C).
as §1
Derivatives of Congo red (commercially available from Sigma/Aldrich) were tested for their ability to alter cell toxicity and death by measuring ATP depletion and luciferase expression. The assay was carried out as described above for the high-throughput identification of compounds. Briefly, HeLa cells were transiently transfected with a Q79/GFP plasmid and were subsequently treated with various concentrations of Congo red, or 25 μM of each of Direct Orange 6, Direct Red 1, Direct Orange 1, Direct Black 51, Direct Orange 8, Direct Yellow 26, Direct Yellow 28, or Direct Blue 158. Drug treatment continued for 6 hours and then 48 hours later, ATP levels were measured in these cells and compared to the ATP levels in cells that were transiently transfected with GFP only, and also received the compound.

[3] = tested on: HeLa cells expressing Q79 expanded polyglutamine repeats; test: Cell death induced by TNF-α/CHX, Fas/CHX or H2O2; settings: 100 μM, one hour before the inducing agent; cell death 48 hours later
Procedure: FIG. 5F is a graph of the effects of Congo red, ZVAD, or vehicle (NT) on cell death when the cells are induced to die by receptor mediated pathways (TNF-α/cycloheximide (CHX), Fas/cycloheximide (CHX)), or necrosis (hydrogen peroxide).
HeLa cells expressing Q79 expanded polyglutamine repeats were treated with 100 μM Congo red, or 100 μM ZVAD (a positive control) for one hour prior to the addition of the apoptosis-inducing agent, and cell death was determined 48 hours later. […] Finally we tested whether Congo red can inhibit apoptosis induced by overexpression of caspase-1, -8, or -11.

[4] = tested on: non-transfected HeLa cells; test: Total cellular protein degradation; settings: Congo red 100 μM, ZVAD 100 μM, MG132 10 μM; H3-tyrosine release, 0 to 180 minutes
Procedure: FIG. 8C is a graph of the effect of effect of Congo red, ZVAD, or the proteosome inhibitor MG132 on total cellular protein degradation in non-transfected HeLa cells.
To rule out the possibility that Congo red may have an effect on protein degradation in general, we tested the effect of Congo red on proteosome degradation. Rates of total cellular protein degradation experiments, from cells seeded in 12 well dishes at 2×10^4, treated with Congo red (100 μM), ZVAD (100 μM), or the proteosome inhibitor MG132 (10 μM) and labeled with 5 μCi/ml of H^3-tyrosine for 1 hour. One hundred microliter culture medium aliquots were collected at 0, 30, 60, 90, 120, and 180 minute time points, and the levels of H^3-tyrosine were determined using an LS6000 scintillation counter (Beckman, Co).

C/C(=N\NC(=S)N1CCCCC1)c1ccccc1 [PQIB]
cell protective effect (ATP depletion tests and luciferase activity analysis) [1]: cytoprotective

CC(=O)Nc1ccc(-c2ccc(NC(C)=O)cc2)cc1 [PQIG]
cell protective effect (ATP depletion tests and luciferase activity analysis) [1]: cytoprotective

COC(=O)C[C@H](NC(=O)[C@H](C)NC(=O)[C@@H](NC(=O)OCc1ccccc1)C(C)C)C(=O)CF [ZVAD, reference compound] (Cbz-Val-Ala-Asp(OMe)-CH2F)
ATP depletion upon expanded polyglutamine expression [2]: inhibited
cell death induced by TNF-α/CHX, Fas/CHX, or H2O2 [3]: effective in inhibiting both TNF-α- and Fas-induced apoptosis
general protein degradation [4]: neither Congo red nor ZVAD had any effect
